Patent publication US7320979B2, “N-[(piperazinyl)hetaryl]arylsulfonamide compounds” (Abbott GmbH & Co. KG., priority 2003, dated 2008)
Structures can show the parent of a compound that is named as a salt.

What was measured:
[1] = target: T1, human dopamine D3 receptors (Homo sapiens, UniProt P35462); assay: Dopamine D3 receptor binding, displacement of [125I]-iodosulpride; conditions: membranes of HEK-293 cells stably expressing human D3 receptors; 0.1 nM [125I]-iodosulpride; 25° C., 60 minutes
T1 construct: expressed in transfected cells; host or cells: HEK-293
T1 sequence (P35462 whole entry): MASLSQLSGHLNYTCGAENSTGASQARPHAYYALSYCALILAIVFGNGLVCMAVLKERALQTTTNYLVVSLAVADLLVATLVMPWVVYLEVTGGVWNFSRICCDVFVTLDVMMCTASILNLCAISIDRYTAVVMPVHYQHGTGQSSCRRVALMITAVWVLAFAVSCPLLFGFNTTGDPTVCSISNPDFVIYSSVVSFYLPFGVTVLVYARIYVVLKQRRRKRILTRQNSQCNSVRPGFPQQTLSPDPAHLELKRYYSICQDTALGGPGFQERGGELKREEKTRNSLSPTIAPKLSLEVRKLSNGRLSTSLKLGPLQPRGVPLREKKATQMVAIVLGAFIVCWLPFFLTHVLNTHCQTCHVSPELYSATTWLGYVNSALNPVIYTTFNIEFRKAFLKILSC
Description: (§1) The substance to be tested was either dissolved in methanol/Chremophor® (BASF-AG) or in dimethyl sulfoxide and then diluted with water to the desired concentration.
(§2) Each assay mixture was run in triplicate.
The incubation buffer contained 50 mM tris, 120 mM NaCl, 5 mM KCl, 2 mM CaCl2, 2 mM MgCl2 and 0.1% bovine serum albumin, 10 μM […] and 0.1% ascorbic acid (prepared fresh daily). The buffer was adjusted to pH 7.4 with HCl.
(§3) After having been incubated at 25° C. for 60 minutes, the assay mixtures were filtered through a Whatman GF/B glass fiber filter under vacuum using a cell collecting device. The filters were transferred to scintillation viols using a filter transfer system. After 4 ml of Ultima Gold® (Packard) have been added, the samples were shaken for one hour and the radioactivity was then counted in a Beta-Counter (Packard, Tricarb 2000 or 2200CA). The cpm values were converted into dpm using a standard quench series and the program belonging to the instrument.
(§4) The inhibition curves were analyzed by means of iterative nonlinear regression analysis using the Statistical Analysis System (SAS) which is similar to the “LIGAND” program described by Munson and Rodbard.

[2] = target: T2, human dopamine D2L receptors (long isoform) (Homo sapiens, UniProt P14416); assay: Dopamine D2L receptor binding, displacement of [125I] iodospiperone; conditions: footnote: ratio of the Ki values of the D3 and D2L binding tests
T2 construct: expressed in transfected cells; host or cells: HEK-293
T2 sequence (P14416 whole entry, canonical isoform): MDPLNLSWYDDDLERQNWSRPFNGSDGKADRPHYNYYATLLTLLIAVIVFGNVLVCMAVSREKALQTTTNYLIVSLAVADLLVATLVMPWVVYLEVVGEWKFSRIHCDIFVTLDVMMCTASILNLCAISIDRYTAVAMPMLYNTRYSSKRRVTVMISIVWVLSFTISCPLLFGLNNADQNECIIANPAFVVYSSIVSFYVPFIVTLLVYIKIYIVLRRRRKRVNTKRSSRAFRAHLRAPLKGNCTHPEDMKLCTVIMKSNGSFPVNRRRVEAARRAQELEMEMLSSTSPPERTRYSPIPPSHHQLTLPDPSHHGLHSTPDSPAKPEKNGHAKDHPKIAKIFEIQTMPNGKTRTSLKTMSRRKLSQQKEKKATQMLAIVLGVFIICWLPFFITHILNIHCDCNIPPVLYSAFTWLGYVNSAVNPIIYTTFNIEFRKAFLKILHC
Description: as §1, §2
The incubation buffer contained 50 mM tris, 120 mM NaCl, 5 mM KCl, 2 mM CaCl2, 2 mM MgCl2 and 0.1% bovine serum albumin. The buffer was adjusted to pH 7.4 with HCl.
as §3, §4

Row | SMILES | Ki [1] | Selectivity vs. D2L [2]
1 | C=CCN1CCN(c2ccc(NS(=O)(=O)c3ccc(C(C)C)cc3)cn2)CC1C.Cl (racemic) [Example 13, N-[6-(4-Allyl-3-methylpiperazin-1-yl)pyridin-3-yl]-4-isopropylbenzenesulfonamide hydrochloride] | 3.6 nM | 131
2 | CCCN1CCN(c2ccc(NS(=O)(=O)c3ccc(C(C)C)cc3)cn2)CC1C.Cl (racemic) [Example 14, 4-Isopropyl-N-[6-(3-methyl-4-propylpiperazin-1-yl)pyridin-3-yl]benzenesulfonamide hydrochloride] | 2.5 nM | 81
3 | C=CCN1CCN(c2ccc(NS(=O)(=O)c3ccc(C(C)C)cc3)cn2)CC1 [Example 1, N-[6-(4-Allylpiperazin-1-yl)pyridin-3-yl]-4-isopropylbenzenesulfonamide] | 3 nM | 232
4 | C=CCN1CCN(c2ccc(NS(=O)(=O)c3ccc(CCC)cc3)cn2)CC1 [Example 2, N-[6-(4-Allylpiperazin-1-yl)pyridin-3-yl]-4-propylbenzenesulfonamide] | 5.5 nM | 25
5 | C=CCN1CCN(c2ccc(NS(=O)(=O)c3ccc(CCCC)cc3)cn2)CC1 [Example 3, N-[6-(4-Allylpiperazin-1-yl)pyridin-3-yl]-4-butylbenzenesulfonamide] | 5.9 nM | 15
6 | C=CCN1CCN(c2ccc(NS(=O)(=O)c3ccc(CC)cc3)cn2)CC1.Cl [Example 5, N-[6-(4-Allylpiperazin-1-yl)pyridin-3-yl]-4-ethylbenzenesulfonamide hydrochloride] | 11.4 nM | 108
7 | C=CCN1CCN(c2ccc(NS(=O)(=O)c3ccc(C=C)cc3)cn2)CC1.Cl [Example 6, N-[6-(4-Allylpiperazin-1-yl)pyridin-3-yl]-4-vinylbenzenesulfonamide hydrochloride] | 9.7 nM | 169
8 | CC(C)c1ccc(S(=O)(=O)Nc2ccc(N3CCNCC3)nc2)cc1 [Example 7, 4-Isopropyl-N-(6-piperazin-1-ylpyridin-3-yl)benzenesulfonamide] | 11.4 nM | 68
9 | CC(C)c1ccc(S(=O)(=O)Nc2ccc(N3CCN(C)CC3)nc2)cc1 [Example 10, 4-Isopropyl-N-[6-(4-methylpiperazin-1-yl)pyridin-3-yl]benzenesulfonamide] | 7.5 nM | 93
10 | CCN1CCN(c2ccc(NS(=O)(=O)c3ccc(C(C)C)cc3)cn2)CC1.Cl [Example 11, N-[6-(4-Ethylpiperazin-1-yl)pyridin-3-yl]-4-isopropylbenzenesulfonamide hydrochloride] | 6.2 nM | 77
11 | C=CCN1CCN(c2ccc(NS(=O)(=O)c3ccc(C(C)C)cc3)cn2)C[C@@H]1C [Example 13a, N-{6-[4-Allyl-(3S)-methylpiperazin-1-yl]pyridin-3-yl}-4-isopropylbenzenesulfonamide] | 2.7 nM | 96
12 | CCCN1CCN(c2ccc(NS(=O)(=O)c3ccc(C(C)C)cc3)cn2)C[C@@H]1C [Example 14a, 4-Isopropyl-N-{6-[(3S)-methyl-4-propylpiperazin-1-yl]pyridin-3-yl}benzenesulfonamide] | 1.5 nM | 184
13 | C=CCN1CCN(c2ncc(NS(=O)(=O)c3ccc(C(C)C)cc3)cn2)CC1 [Example 16, N-[2-(4-Allylpiperazin-1-yl)pyrimidin-5-yl]-4-isopropylbenzenesulfonamide] | 3.8 nM | 131
14 | CCCN1CCN(c2ncc(NS(=O)(=O)c3ccc(C(C)C)cc3)cn2)CC1.Cl [Example 17, 4-Isopropyl-N-[2-(4-propylpiperazin-1-yl)pyrimidin-5-yl]benzenesulfonamide hydrochloride] | 8.2 nM | 148
15 | C=CCN1CCN(c2ccc(NS(=O)(=O)c3ccc(Br)cc3)cn2)CC1.Cl [Example 19, N-[2-(4-Allylpiperazin-1-yl)pyridin-5-yl]-4-bromobenzenesulfonamide hydrochloride] | 36.9 nM | 91
16 | CCCN1C(C)CN(c2ncccc2NS(=O)(=O)c2ccc(C(C)C)cc2)CC1C.O=C(O)C(F)(F)F (stereo not shown) [Example 22, 4-Isopropyl-N-[2-(3,5-dimethyl-4-propylpiperazin-1-yl)pyridin-3-yl]benzenesulfonamide trifluoroacetate] | 21.9 nM | 22

Row | SMILES | Ki [1] | Selectivity vs. D2L [2]
17 | C=CCN1C(C)CN(c2ccc(NS(=O)(=O)c3ccc(C(C)C)cc3)cn2)CC1C.Cl (stereo not shown) [Example 24, N-[6-(4-Allyl-3,5-dimethylpiperazin-1-yl)pyridin-3-yl]-4-isopropylbenzenesulfonamide hydrochloride] | 25 nM | 47
18 | CCCN1CCN(c2ccc(NS(=O)(=O)c3ccc(Br)cc3)cn2)CC1 [Example 27, 4-Bromo-N-[6-(4-propylpiperazin-1-yl)pyridin-3-yl]-benzenesulfonamide] | 21.4 nM | 55
19 | CCCN1CCN(c2ccc(NS(=O)(=O)c3ccc(Cl)cc3)cn2)CC1 [Example 28, 4-Chloro-N-[6-(4-propylpiperazin-1yl)pyridin-3-yl]-benzenesulfonamide] | 25.3 nM | 67
20 | CCCN1CC2CC1CN2c1ccc(NS(=O)(=O)c2ccc(C(C)C)cc2)cn1.Cl (stereo not shown) [Example 29, 4-Isopropyl-N-[6-(5-propyl-2,5-diazabicyclo[2.2.1]hept-2-yl)pyridin-3-yl]-benzenesulfonamide hydrochloride] | 16.9 nM | 31
21 | C=CCN1CC2CC1CN2c1ccc(NS(=O)(=O)c2ccc(C(C)C)cc2)cn1.Cl (stereo not shown) [Example 30, N-[6-(5-Allyl-2,5-diazabicyclo[2.2.1]hept-2-yl)pyridin-3-yl]-4-isopropylbenzenesulfonamide hydrochloride] | 11.1 nM | 17
22 | C=Cc1ccc(S(=O)(=O)Nc2ccc(N3CCN(CCC)CC3)nc2)cc1.Cl [Example 31, N-[6-(4-Propylpiperazin-1-yl)pyridin-3-yl]-4-vinylbenzenesulfonamide hydrochloride] | 14 nM | 96
23 | CC(C)c1ccc(S(=O)(=O)Nc2ccc(N3CCN(CCCF)CC3)nc2)cc1.Cl [Example 32, N-{6-[4-(3-Fluoropropyl)piperazin-1-yl]pyridin-3-yl}-4-isopropylbenzenesulfonamide hydrochloride] | 17 nM | 74
24 | CCCN1CCN(c2ccc(NS(=O)(=O)c3ccc(CC)cc3)cn2)CC1.Cl [Example 34, 4-Ethyl-N-[6-(4-propylpiperazin-1-yl)pyridin-3-yl]-benzenesulfonamide hydrochloride] | 9.6 nM | 73
25 | C=CCN1CCN(c2ccc(NS(=O)(=O)c3ccc(Cl)cc3)cn2)CC1.Cl [Example 35, N-[6-(4-Allylpiperazin-1-yl)pyridin-3-yl]-4-chlorobenzenesulfonamide hydrochloride] | 26.6 nM | 51
26 | Cc1cc(N2CCNCC2)ncc1NS(=O)(=O)c1ccc(C(C)C)cc1.Cl [Example 36, 4-Isopropyl-N-(4-methyl-6-piperazin-1-ylpyridin-3-yl)-benzenesulfonamide hydrochloride] | 5.4 nM | 50
27 | C=CCN1CCN(c2cc(C)c(NS(=O)(=O)c3ccc(C(C)C)cc3)cn2)CC1.Cl [Example 37, N-[6-(4-Allylpiperazin-1-yl)-4-methylpyridin-3-yl]-4-isopropylbenzenesulfonamide hydrochloride] | 2.7 nM | 86
28 | CCCN1CCN(c2cc(C)c(NS(=O)(=O)c3ccc(C(C)C)cc3)cn2)CC1.Cl [Example 38, 4-Isopropyl-N-[4-methyl-6-(4-propylpiperazin-1-yl)pyridin-3-yl]-benzenesulfonamide hydrochloride] | 17.2 nM | 22
29 | C=Cc1ccc(S(=O)(=O)Nc2cnc(N3CCN(CCC)CC3)cc2C)cc1.Cl [Example 39, N-[4-Methyl-6-(4-propylpiperazin-1-yl)pyridin-3-yl]-4-vinylbenzenesulfonamide hydrochloride] | 34.6 nM | 30
30 | C=CCN1CCN(c2ccc(NS(=O)(=O)c3ccc(C(C)C)cc3)c(C)n2)CC1 [Example 43] | 1.1 nM | 80
31 | C=CCN1CCN(c2ccc(NS(=O)(=O)c3ccc(C(C)(C)C)cc3)c(C)n2)CC1 [Example 44, 4-tert-Butyl-[N-[2-(4-allylpiperazin-1-yl)-6-methylpyridin-5-yl]-benzenesulfonamide, fumarate] | 1.4 nM | 41
32 | C=CCN1CCN(c2ccc(NS(=O)(=O)c3ccc(C(C)(C)CC)cc3)c(C)n2)CC1 [Example 45, 4-tert-pentyl-[N-[2-(4-Allylpiperazin-1-yl)-6-methylpyridin-5-yl]-benzenesulfonamide, Fumarate] | 1.4 nM | 24
